The structures appear in SMILES notation.

One experiment deals with COV362. The experiment in a line: drug sensitivity score (DSS) from 5-point dose-response viability curve (DSS (area-under-curve based score)); higher = more sensitive (stronger growth inhibition or killing); extreme values may be limits of the assay. The conditions noted are these: exposure time: 72 h; concentration range: 5 concentrations over 10,000-fold range. The method in brief:
(§1)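 Drug sensitivity scores were calculated in Breeze software for each cell line and drug pair; higher scores indicate more sensitivity. A score of zero indicates no response. The underlying assay used 384-well plates: drugs were placed by an Echo 550 acoustic dispenser at five concentrations spanning a 10,000-fold range, 1,500 ovarian cancer or normal ovarian cells were added per well, and cells were kept 3 days at 37°C, 5% CO2. Viability was then measured with CellTiter-Glo luminescence on a PHERAstar FS.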
Regarding `Nc1cc(COc2c(Cl)cc(C[C@H](N)C(=O)O)cc2Cl)c2oc(-c3ccccc3)nc2c1` [JPH203], the drug sensitivity score was 0.

`CC(C)NC(=O)COc1cccc(-c2nc(Nc3ccc4[nH]ncc4c3)c3ccccc3n2)c1` [KD025]: the drug sensitivity score was 0.5. Same read-out and setting: for `CS(=O)(=O)CCNCc1ccc(-c2ccc3ncnc(Nc4ccc(OCc5cccc(F)c5)c(Cl)c4)c3c2)o1` [Lapatinib] the value was 0; for `O=C(Nc1cnn2ccc(N3CCC[C@@H]3c3cc(F)ccc3F)nc12)N1CC[C@H](O)C1` [Larotrectinib], 0; for `Oc1ccc2c(c1)CC[C@H](c1ccccc1)[C@@H]2c1ccc(OCCN2CCCC2)cc1` [Lasofoxifene], 0. For the compound `Nc1cccc2c1CN(C1CCC(=O)NC1=O)C2=O` (stereo not drawn) [Lenalidomide], the drug sensitivity score was determined as 0. On the same count and under the same terms, the result for `COc1cc2nccc(Oc3ccc(NC(=O)NC4CC4)c(Cl)c3)c2cc1C(N)=O` [Lenvatinib] reads 0; that for `N#Cc1ccc(C(c2ccc(C#N)cc2)n2cncn2)cc1` [Letrozole], 0. On the same count and under the same terms, the result for `Cc1ccc(F)c(NC(=O)Nc2ccc(-c3cccc4[nH]nc(N)c34)cc2)c1` [Linifanib] reads 0; that for `C[C@]1(O)C[C@@H](c2nc(-c3ccc4ccc(-c5ccccc5)nc4c3)c3c(N)nccn32)C1` [Linsitinib], 0. Same read-out and setting: the result for `CCNCCS(=O)(=O)NC[C@@]1(c2ccccc2)SC(NC(=O)C(C)(C)C)=NN1C(=O)C(C)(C)C` [Litronesib] reads 1.1; that for `Nc1nc(OCc2cc(Br)cs2)c2[nH]cnc2n1` [Lomeguatrib], 0; that for `NC(=O)N1CCC(CC(=O)N2CCC([C@H]3c4ncc(Br)cc4CCc4cc(Cl)cc(Br)c43)CC2)CC1` [Lonafarnib], 1.9. For `Cc1c(F)cc(C(=O)NC2CC2)cc1-c1ccc(C(=O)NCC(C)(C)C)cn1` [Losmapimod], the drug sensitivity score was determined as 0.

On to `CC[C@H](C)C(=O)O[C@H]1C[C@@H](C)C=C2C=C[C@H](C)[C@H](CC[C@@H]3C[C@@H](O)CC(=O)O3)[C@H]21` [Lovastatin], for which the drug sensitivity score was found to be 0.1.

`CNC(=O)c1cccc2cc(Oc3ccnc4cc(OCC5(N)CC5)c(OC)cc34)ccc12` [Lucitanib] yielded a drug sensitivity score of 0.

`CCNC(=O)c1noc(-c2cc(C(C)C)c(O)cc2O)c1-c1ccc(CN2CCOCC2)cc1` [Luminespib] came in with a drug sensitivity score of 13.8. Still for that read-out and setting: the result for `O=C(O)CC[C@H]1CC[C@@](c2cc(F)ccc2F)(S(=O)(=O)c2ccc(Cl)cc2)CC1` [MK-0752] reads 0; that for `NC1(c2ccc(-c3nc4ccn5c(=O)[nH]nc5c4cc3-c3ccccc3)cc2)CCC1` [MK-2206], 0.4. In turn, `O=C(c1cccc(Cl)c1F)N1CCN(Cc2cccc(Nc3nccs3)n2)CC1` [MK-8745] had a drug sensitivity score of 0. The compound `Cn1cc(-c2cnn3c(N)c(Br)c([C@@H]4CCCNC4)nc23)cn1` [MK-8776] returned a drug sensitivity score of 0. Same read-out and setting: for `Cc1cnc(-c2ccccc2C(C)C)nc1NCc1ccc(-n2ccnn2)cc1` [ML323] the value was 0.

In turn, `O=C(CCNC(=O)c1ccc(OC(F)(F)F)cc1)N[C@@H]1CCCc2ccccc21` [ML390] showed a drug sensitivity score of 0. With `O=C(Nc1cccc(NC(=O)c2cccc(O)c2O)c1)c1cccc(O)c1O` [MST-312], the drug sensitivity score is 5.1. Same read-out and setting: the result for `CNC(=O)[C@@H](NC(=O)[C@H](CC(C)C)[C@H](O)C(=O)NO)C(C)(C)C` [Marimastat] reads 0; that for `Cc1ccc(NC(=O)c2ccc(CN3CCN(C)CC3)cc2)cc1Nc1nc(-c2cccnc2)cs1` [Masitinib], 1.4; that for `CC(=O)O[C@]1(C(C)=O)CC[C@H]2[C@@H]3C=C(C)C4=CC(=O)CC[C@]4(C)[C@H]3CC[C@@]21C` [Megestrol acetate], 0. `CCN(CC)CCCC(C)Nc1c2ccc(Cl)cc2nc2ccc(OC)cc12` (stereo not drawn) [Mepacrine] displayed a drug sensitivity score of 10.3. Compound `S=c1[nH]cnc2nc[nH]c12` [Mercaptopurine] returned a drug sensitivity score of 6.4.

As to `Cc1ccc(C(=O)Nc2ccc(Oc3cc4cnn(C)c4cc3-c3cn[nH]c3)c(F)c2)c(=O)n1-c1ccc(F)cc1` [Merestinib], the drug sensitivity score was 0. Same read-out and setting: the result for `CN(C)C(=N)NC(=N)N` [Metformin] reads 0; that for `CN(Cc1cnc2nc(N)nc(N)c2n1)c1ccc(C(=O)N[C@@H](CCC(=O)O)C(=O)O)cc1` [Methotrexate], 14.5.

The next experiment deals with Kuramochi. The experiment is described as above. To be noted: exposure time: 72 h; concentration range: 5 concentrations over 10,000-fold range. The method in brief: as §1
With `Nc1cc(COc2c(Cl)cc(C[C@H](N)C(=O)O)cc2Cl)c2oc(-c3ccccc3)nc2c1` [JPH203], the drug sensitivity score worked out at 0. The compound `CC(C)NC(=O)COc1cccc(-c2nc(Nc3ccc4[nH]ncc4c3)c3ccccc3n2)c1` [KD025] came in with a drug sensitivity score of 3.8. On the same count and under the same terms, for `CS(=O)(=O)CCNCc1ccc(-c2ccc3ncnc(Nc4ccc(OCc5cccc(F)c5)c(Cl)c4)c3c2)o1` [Lapatinib] the value was 0; for `O=C(Nc1cnn2ccc(N3CCC[C@@H]3c3cc(F)ccc3F)nc12)N1CC[C@H](O)C1` [Larotrectinib], 0.

In turn, `Oc1ccc2c(c1)CC[C@H](c1ccccc1)[C@@H]2c1ccc(OCCN2CCCC2)cc1` [Lasofoxifene] showed a drug sensitivity score of 0.3. With `Nc1cccc2c1CN(C1CCC(=O)NC1=O)C2=O` (stereo not drawn) [Lenalidomide], the drug sensitivity score worked out at 0.2. `COc1cc2nccc(Oc3ccc(NC(=O)NC4CC4)c(Cl)c3)c2cc1C(N)=O` [Lenvatinib]: the drug sensitivity score was found to be 0.

`N#Cc1ccc(C(c2ccc(C#N)cc2)n2cncn2)cc1` [Letrozole]: the drug sensitivity score turned out to be 0. The same measure, in the same setting: for `Cc1ccc(F)c(NC(=O)Nc2ccc(-c3cccc4[nH]nc(N)c34)cc2)c1` [Linifanib] the value was 0; for `C[C@]1(O)C[C@@H](c2nc(-c3ccc4ccc(-c5ccccc5)nc4c3)c3c(N)nccn32)C1` [Linsitinib], 0; for `CCNCCS(=O)(=O)NC[C@@]1(c2ccccc2)SC(NC(=O)C(C)(C)C)=NN1C(=O)C(C)(C)C` [Litronesib], 7.5.

For `Nc1nc(OCc2cc(Br)cs2)c2[nH]cnc2n1` [Lomeguatrib], the drug sensitivity score was determined as 0.8. In turn, `NC(=O)N1CCC(CC(=O)N2CCC([C@H]3c4ncc(Br)cc4CCc4cc(Cl)cc(Br)c43)CC2)CC1` [Lonafarnib] registered a drug sensitivity score of 11. Still for that read-out and setting: the result for `Cc1c(F)cc(C(=O)NC2CC2)cc1-c1ccc(C(=O)NCC(C)(C)C)cn1` [Losmapimod] reads 2; that for `CC[C@H](C)C(=O)O[C@H]1C[C@@H](C)C=C2C=C[C@H](C)[C@H](CC[C@@H]3C[C@@H](O)CC(=O)O3)[C@H]21` [Lovastatin], 0.3. Regarding `CNC(=O)c1cccc2cc(Oc3ccnc4cc(OCC5(N)CC5)c(OC)cc34)ccc12` [Lucitanib], the drug sensitivity score is 0.1.

Source of the values: the supplement of paper PMC11616607.
